Reference: patent US20220144812A1, “QUINOLINE DERIVATIVES AND THEIR USE FOR THE TREATMENT OF CANCER” (Epizyme, Inc., priority 2019, published 2022)

The molecules below were run on H3K18Ac in HB-CLS-2 cells (assay: H3K18AC in-cell western (ICW) assay). Settings: H3K18Ac in-cell western, HB-CLS-2 cells; read-out: CREBBP ICW IC50.
Assay type: cell-based
Excerpt: The following example describes methods and materials relating to an H3K18AC in-cell western assay. IC50 values (micromolar (μM)) are summarized in Table 1, Table 2, and Table 3 under the column labeled: “CREBBP ICW IC50 (micromolar).”
MATERIALS: HB-CLS-2 cell line, DMEM: Ham's F12 medium (1:1 mixture), penicillin-streptomycin, heat inactivated fetal bovine serum, D-PBS, Odyssey blocking buffer, 800CW goat anti-rabbit IgG (H+L) antibody, Licor Odyssey CLx Infrared Scanner, H3K18Ac rabbit monoclonal antibody. DRAQS fluorescent probe solution (5 mM), and 100% methanol were commercially available. HB-CLS-2 adherent cells were maintained in complete growth medium (DMEM: Ham's F12 supplemented with 10% v/v heat inactivated fetal bovine serum) and cultured at 37° C. under 5% CO2.
METHOD: Cell Treatment, ICW for detection of H3K18Ac and DNA content. HB-CLS-2 cells were seeded in assay medium (DMEM: Ham's F12 supplemented with 10% v/v heat inactivated fetal bovine serum and 1% Penicillin/Streptomycin) at a concentration of 80,000 cells per mL in a Poly-D-Lysine coated 384-well culture plates at 50 μL per well. Plates were incubated at room temperature for 30 minutes and then incubated at 37° C., 5% CO2 for additional 16-24 hours. Compounds and DMSO normalization were then added directly to the plates using a D300 Digital Dispenser and returned to the incubator at 37° C., 5% CO2 for 2 hrs. After the incubation, the contents of the plates were discarded into the appropriate waste stream and blotted on laboratory tissue to remove residual liquid. 90 μL per well of 100% ice cold methanol was added to the plates and incubated at room temperature for 15 minutes. Then methanol was then discarded into the appropriate waste stream and the plates again blotted on laboratory tissue to remove residual liquid. Plates were transferred to a Biotek 405 plate washer and washed 3 times with 100 μL per well of wash buffer (1X PBS containing 0.1% Triton X-100 (v/v)). Next, 50 μL per well of Odyssey blocking buffer with 0.1% Tween 20 (v/v) was added to each plate and incubated for 1 hour at room temperature. Blocking buffer was removed and 20 μL of primary antibody were added (α-H3K18Ac diluted 1:800 in Odyssey buffer with 0.1% Tween 20 (v/v)) and plates were incubated overnight (16 hours) at 4° C. Plates were washed 5 times with 100 μL per well of wash buffer. Next 20 μL per well of secondary antibody was added (1:400 800CW goat anti-rabbit IgG (H+L) antibody, 1:2000 DRAQ5 in Odyssey buffer with 0.1% Tween 20 (v/v)) and incubated for 1 hour at room temperature. The plates were washed 3 times with 100 μL per well wash buffer then 3 times with 100 μL per well of water. Plates were allowed to dry at room temperature then imaged on the Licor Odyssey CLx machine which measured integrated intensity at 700 nm and 800 nm wavelengths. Both 700 and 800 channels were scanned.
CCn1ncc(CN(C)C(=O)c2nc(-c3cnn(CCN(C)C(=O)OC(C)(C)C)c3)nc3ccc(Cl)cc23)c1C [Compound 197] was tested, and the IC50 was 20 µM.
CCn1nc(C)c(CN(C)C(=O)c2nc(-c3ccccc3Cl)nc3ccc(Cl)cc23)c1C [Compound 201] was tested, and the IC50 was 20 µM.
CCn1ncc(CN(C)C(=O)c2cc(-c3cn(C)c(C)n3)nc3cc(Cl)ccc23)c1C [Compound 203] showed an IC50 of 20 µM.
Work on CCn1ncc(CN(C)C(=O)c2nc(-c3cnn(CC4CCCN4)c3)nc3ccc(Cl)cc23)c1C (stereo not drawn) [Compound 204] yielded an IC50 of 20 µM.
CCn1ncc(CN(C)C(=O)c2cc(N3CCN(C(=O)OC(C)(C)C)CC3)nc3ccc(Cl)cc23)c1C [Compound 205] gave an IC50 of 20 µM.
In the case of CCn1ncc(CN(C)C(=O)c2nc(C3CCCN3)nc3ccc(Cl)cc23)c1C (stereo not drawn) [Compound 207], the IC50 is reported as 20 µM.
For CCn1ncc(CN(C)C(=O)c2cc(N3CCN(C)CC3)nc3ccc(Cl)cc23)c1C [Compound 214], the IC50 was 20 µM.
Work on CCn1ncc(CN(C)C(=O)c2nc(-c3cnn(CCC(O)CNC)c3)nc3ccc(Cl)cc23)c1C (stereo not drawn) [Compound 223] yielded an IC50 of 20 µM.
Molecule CCn1ncc(CN(C)C(=O)c2nc(-c3ccc4ccn(C(=O)OC(C)(C)C)c4c3)nc3ccc(Cl)cc23)c1C [Compound 234] has an IC50 of 20 µM.
Work on CCn1ncc(CN(C)C(=O)c2cc(N3CCN(C(C)=O)CC3)nc3ccc(Cl)cc23)c1C [Compound 244] yielded an IC50 of 20 µM.
CCn1ncc(CN(C)C(=O)c2cc(N3CCNCC3)nc3ccc(Cl)cc23)c1C [Compound 246] showed an IC50 of 20 µM.
For CCn1ncc(CN(C)C(=O)c2nc(-c3cnn(CCC(O)CN4CCCC4)c3)nc3ccc(Cl)cc23)c1C (stereo not drawn) [Compound 249], the IC50 was 20 µM.
Molecule CCn1ncc(CN(C)C(=O)c2nc(-c3ccc(OCCN(C)C(=O)OC(C)(C)C)c(F)c3)nc3ccc(Cl)cc23)c1C [Compound 251] has an IC50 of 20 µM.
CCn1ncc(CN(C)C(=O)c2nc(-c3ccc(OCCNC(=O)OC(C)(C)C)c(F)c3)nc3ccc(Cl)cc23)c1C [Compound 252] was tested, and the IC50 was 20 µM.
CCn1ncc(CN(C)C(=O)c2cc(-c3ccc(N(C)CCN(C)C)c(C)n3)nc3ccc(Cl)cc23)c1C [Compound 420] showed an IC50 of 0.74 µM.
For CCn1ncc(CN(C)C(=O)c2nc(-c3cc(C(=O)NC4CC4)n(C)n3)nc3ccc(Cl)cc23)c1C [Compound 421], the IC50 was 0.26 µM.
CCn1ncc(CN(C)C(=O)c2nc(-c3cc(N)c4nc[nH]c4c3)nc3ccc(Cl)cc23)c1C [Compound 422] gave an IC50 of 0.6 µM.
CCc1cc(CNC)cc(-c2nc(C(=O)N(C)Cc3cnn(CC)c3C)c3cc(Cl)ccc3n2)c1 [Compound 423] showed an IC50 of 0.53 µM.
For CCn1ncc(CN(C)C(=O)c2cc(-c3cnc(NCCNC)cn3)nc3ccc(Cl)cc23)c1C [Compound 424], the IC50 was 0.4 µM.
CCc1nc(-c2cc(C(=O)N(C)Cc3cnn(CC)c3C)c3cc(Cl)ccc3n2)ccc1NCCNC [Compound 425] was tested, and the IC50 was 0.15 µM.
In the case of CCn1ncc(CN(C)C(=O)c2cc(-c3ccc(NCCNC)c(C)n3)nc3ccc(COC)cc23)c1C [Compound 427], the IC50 is reported as 0.19 µM.
CCn1ncc(CN(C)C(=O)c2nc(-c3ccc(OC4CCNCC4)c(OC)c3)nc3ccc(Cl)cc23)c1C [Compound 428] gave an IC50 of 1.4 µM.
Work on CCn1ncc(CN(C)C(=O)c2cc(-c3ccc(NCCNC)c(C)n3)nc3ccc(C)cc23)c1C [Compound 429] yielded an IC50 of 0.16 µM.
Molecule CCn1ncc(CN(C)C(=O)c2cc(-c3ccc(OCCCNC)c(C)n3)nc3ccc(Cl)cc23)c1C [Compound 430] has an IC50 of 0.69 µM.
For CCn1ncc(CN(C)C(=O)c2cc(-c3ccc(OCCNC(C)=O)c(C)n3)nc3ccc(Cl)cc23)c1C [Compound 431], the IC50 was 0.84 µM.

Same assay, conditions: H3K18Ac in-cell western; read-out: CREBBP ICW IC50
CCn1ncc(CN(C)C(=O)c2nc(N3CCCNCC3)nc3ccc(Cl)cc23)c1C [Compound 187] was tested, and the IC50 was 20 µM.
Molecule CCn1ncc(CN(C)C(=O)c2nc(-c3cnn(CCCN(C)C(=O)OC(C)(C)C)c3)nc3ccc(Cl)cc23)c1C [Compound 188] has an IC50 of 20 µM.
With CCn1ncc(CN(C)C(=O)c2nc(-c3cnn(CCCNC(=O)OC(C)(C)C)c3)nc3ccc(Cl)cc23)c1C [Compound 189] the IC50 was 20 µM.
CCn1ncc(CN(C)C(=O)c2nc(-c3cccc(Cl)c3)nc3cc(N4CCOCC4)ccc23)c1C [Compound 191] showed an IC50 of 20 µM.
In the case of CCn1ncc(CN(C)C(=O)c2nc(N3CCN(C(C)=O)CC3)nc3ccc(Cl)cc23)c1C [Compound 195], the IC50 is reported as 20 µM.

These molecules were tested against T1, CREBBP (1084-1701) (Homo sapiens, UniProt Q92793) (assay: Biochemical assay for CREBBP (1084-1701), SAMDI). Settings: SAMDI, read-out: CREBBP Biochemistry IC50.
T1 construct: measured in the following biochemical assay using CREBBP (1084-1701); purchased
T1 sequence (Q92793 1084-1701): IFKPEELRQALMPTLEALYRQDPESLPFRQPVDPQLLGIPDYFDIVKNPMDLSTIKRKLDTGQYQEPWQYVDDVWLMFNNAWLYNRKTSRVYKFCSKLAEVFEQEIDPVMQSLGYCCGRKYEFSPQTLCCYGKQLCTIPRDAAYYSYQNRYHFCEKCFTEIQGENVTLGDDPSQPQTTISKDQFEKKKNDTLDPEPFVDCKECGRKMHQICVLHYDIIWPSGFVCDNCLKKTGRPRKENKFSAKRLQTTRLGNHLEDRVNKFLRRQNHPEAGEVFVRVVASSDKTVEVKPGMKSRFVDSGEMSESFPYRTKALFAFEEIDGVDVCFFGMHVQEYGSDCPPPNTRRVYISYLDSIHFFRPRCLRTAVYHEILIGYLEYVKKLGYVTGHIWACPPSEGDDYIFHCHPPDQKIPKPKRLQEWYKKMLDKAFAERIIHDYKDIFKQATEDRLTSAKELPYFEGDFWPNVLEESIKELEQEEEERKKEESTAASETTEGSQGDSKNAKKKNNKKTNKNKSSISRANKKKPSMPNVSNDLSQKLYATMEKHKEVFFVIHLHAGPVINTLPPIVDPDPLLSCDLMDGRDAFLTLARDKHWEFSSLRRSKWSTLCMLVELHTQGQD
Excerpt: The following example describes materials and methods relating to a biochemical assay for CREBBP (1084-1701). IC50 values (micromolar (μM)) are summarized in Table 1, Table 2, and Table 3 under the column labeled: “CREBBP Biochemistry IC50 (micromolar).”
MATERIALS: Reagents 1M Tris pH 8.0, Tween 20 10%, DTT, bovine serum gelatin (BSG) 2%, Peptide #233 (biotin-H3 11-25, K14R, K23R), Acetyl-CoA, CREBBP (1084-1701), formic acid (100%), and sodium bicarbonate were commercially available.
METHODS: The effect of compounds was measured in the following biochemical assay using CREBBP (1084-1701). Enzyme mix 30 μL per well was added using a Multi-drop to wells of prepared Compound Stock plate. The enzyme was incubated in the Compound Stock plate for 30 minutes at room temperature. Substrate mix, 20 μL per well, was added to Compound Stock plate using a Multi-drop. The plate was covered and incubate 30 minutes at room temperature. The reaction was stopped with addition of 5 μL per well of 5% formic acid using a Multi-drop. The plate was Incubated for 30 minutes at room temperature. The reaction mixture was neutralized with addition of 5 μL per well of 10% sodium bicarbonate using a Multi-drop. The plate was Incubated for 35 minutes at room temperature. The reaction mixture was Transferred 2.5 μL per well to a SAMDI biochip. The plate was Incubated for 60 minutes at room temperature. The samples were washed, dried, and matrix applied to SAMDI biochip. The SAMDI biochip was then read on the mass spectrometer.
With CCn1ncc(CN(C)C(=O)c2cc(-c3ccccc3Cl)nc3cc(F)ccc23)c1C [Compound 253] the IC50 was 90 µM.
CCn1ncc(CN(C)C(=O)c2nc(-c3cccc(Cl)c3)nc3ccc(Cl)c(C)c23)c1C [Compound 256] gave an IC50 of 1.4 µM.
For CCn1ncc(CN(C)C(=O)c2cc(-c3cn(C)cn3)nc3cc(Cl)ccc23)c1C [Compound 257], the IC50 was 120 µM.
Molecule CCn1ncc(CN(C)C(=O)c2nc(-c3ccccn3)nc3ccc(Cl)cc23)c1C [Compound 262] has an IC50 of 5.4 µM.
Work on CCn1ncc(CN(C)C(=O)c2cc(-c3ccccc3Cl)nc3cc(C)ccc23)c1C [Compound 263] yielded an IC50 of 87 µM.
In the case of Cc1c(CN(C)C(=O)c2cc(-c3cccc(Cl)c3)nc3ccccc23)cnn1C [Compound 265], the IC50 is reported as 195 µM.
For CCn1ncc(CN(C)C(=O)c2cc(-c3ccccc3Cl)nc3c(Cl)cccc23)c1C [Compound 269], the IC50 was 26 µM.
For CCn1ncc(CN(C)C(=O)c2cc(-c3ccccc3Cl)nc3cc(Cl)ccc23)c1C [Compound 270], the IC50 was 25 µM.
CN(Cc1cc2n(n1)CCC2)C(=O)c1cc(-c2cccc(Cl)c2)nc2ccc(Cl)cc12 [Compound 271] gave an IC50 of 14 µM.
CCn1ncc(CN(C)C(=O)c2cc(-c3ccccc3)nc3ccc(OC)cc23)c1C [Compound 272] gave an IC50 of 66 µM.
In the case of CCn1ncc(CN(C)C(=O)c2cc(-c3cccc(Cl)c3)nc3ccc(OC)cc23)c1C [Compound 273], the IC50 is reported as 19 µM.
For CCc1ncc(CN(C)C(=O)c2nc(-c3cccc(Cl)c3Cl)nc3ccc(Cl)cc23)n1C [Compound 274], the IC50 was 0.0032 µM.
In the case of CCn1ncc(CN(C)C(=O)c2nc(-c3cccc(Cl)c3)nc3ccc(C)cc23)c1C [Compound 275], the IC50 is reported as 0.014 µM.
Molecule CCn1ncc(CN(C)C(=O)c2nc(-c3ncccn3)nc3ccc(Cl)cc23)c1C [Compound 278] has an IC50 of 132 µM.
CCn1ncc(CN(C)C(=O)c2nc(-c3cccc(C(F)(F)F)c3)nc3ccc(Cl)cc23)c1C [Compound 280] was tested, and the IC50 was 0.27 µM.
Work on CCn1ncc(CN(C)C(=O)c2cc(-c3cnn(C)c3)nc3ccc(Cl)cc23)c1C [Compound 289] yielded an IC50 of 26 µM.
CCn1nnc(CN(C)C(=O)c2cc(-c3ccccc3Cl)nc3ccc(Cl)cc23)c1C [Compound 291] gave an IC50 of 89 µM.
Molecule CCn1nnc(CN(C)C(=O)c2nc(-c3ccccc3Cl)nc3ccc(Cl)cc23)c1C [Compound 292] has an IC50 of 50 µM.
Work on CCc1n[nH]c(CN(C)C(=O)c2cc(-c3ccccc3Cl)nc3ccc(Cl)cc23)c1C [Compound 298] yielded an IC50 of 31 µM.
With Cc1c(CN(C)C(=O)c2cc(-c3cccc(Cl)c3)nc3ccccc23)cnn1C(C)C [Compound 304] the IC50 was 43 µM.
In the case of CCn1ncc(CN(C)C(=O)c2nc(-c3cccc(Cl)c3)nc3ccc(F)cc23)c1C [Compound 309], the IC50 is reported as 1.8 µM.
